Measurements: US20260028326A1, “COMPOUND BASED ON ISOINDOLINE-SUBSTITUTED GLUTARIMIDE BACKBONE AND USE THEREOF” (GLUETACS THERAPEUTICS (SHANGHAI) CO., LTD., priority 2022, published 2026)

Molecular target: human Cereblon WT GST-tagged protein (Homo sapiens (Human), UniProt Q96SW2)
Assay: CRBN-binding affinity, HTRF (CEREBLON BINDING kit)
Method: The CEREBLON BINDING kits (specification: 10,000 tests; product number: Catalog #64BDCRBNPEH; CISBIO company) was used to determine the CRBN binding ability of the compounds to be tested through a HTRF method (homogeneous time-resolved fluorescence). The specific methods are as follows: • 1. […] Then, 2.5 μL of human Cereblon WT GST-tagged protein solution was added to each well. Finally, 5 μL of the thoroughly mixed Thalidomide-Re reagent and GST Eu antibody working solution were added to each of the aforementioned wells. […] The blank control wells were sequentially added with 2.5 μL of diluent #9 (1×) solution, 2.5 μL of PROTAC binding buffer, and 5 μL of thoroughly mixed Thalidomide-Re reagent and GST Eu antibody working solution. • 4.
The corresponding CRBN binding inhibition rate was calculated using the following method: […]

Sequence of human Cereblon WT GST-tagged protein (Q96SW2 whole entry): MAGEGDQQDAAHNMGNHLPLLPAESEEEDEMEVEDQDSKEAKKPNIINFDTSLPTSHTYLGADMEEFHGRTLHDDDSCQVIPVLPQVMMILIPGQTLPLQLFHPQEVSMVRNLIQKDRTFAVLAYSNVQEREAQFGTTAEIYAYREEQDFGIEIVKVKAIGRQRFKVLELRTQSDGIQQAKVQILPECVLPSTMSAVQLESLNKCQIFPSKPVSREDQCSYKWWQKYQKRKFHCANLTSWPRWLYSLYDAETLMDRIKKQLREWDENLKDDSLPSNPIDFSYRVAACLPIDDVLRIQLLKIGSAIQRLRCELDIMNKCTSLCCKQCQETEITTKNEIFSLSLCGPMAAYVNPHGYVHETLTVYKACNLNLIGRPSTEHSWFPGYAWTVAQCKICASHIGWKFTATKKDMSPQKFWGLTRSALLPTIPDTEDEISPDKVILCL

Q: For `CC1(C)CCC(CN2C3CCC2CN(Cc2cc4c(cc2F)C(=O)N(C2CCC(=O)NC2=O)C4)C3)=C(c2ccc(Cl)cc2)C1` (stereo not shown) [GT-05535, 3-(5-((8-((4′-chloro-5,5-dimethyl-3,4,5,6-tetrahydro-[1,1′-biphenyl]-2-yl)methyl)-3,8-diazabicyclo[3.2.1]octan-3-yl)methyl)-6-fluoro-1-oxoisoindolin-2-yl)piperidine-2,6-dione], which IC50 is on record?
A: 1790 nM

Q: With `CC1(C)CCC(CN2C3CCC2CN(Cc2ccc4c(c2)CN(C2CCC(=O)NC2=O)C4=O)C3)=C(c2ccc(F)cc2)C1` (stereo not shown) [GT-05510, 3-(5-((8-((4′-fluoro-5,5-dimethyl-3,4,5,6-tetrahydro-[1,1′-biphenyl]-2-yl)methyl)-3,8-diazabicyclo[3.2.1]octan-3-yl)methyl)-1-oxoisoindolin-2-yl)piperidine-2,6-dione] as the compound, how does the IC50 read?
A: 1220 nM

Q: Which IC50 does the source give for `CC1(C)CCC(CN2C3CCC2CN(C(=O)c2ccc4c(c2)CN(C2CCC(=O)NC2=O)C4=O)C3)=C(c2ccc(Cl)cc2)C1` (stereo not shown) [GT-05446, 3-(5-(8-((4′-chloro-5,5-dimethyl-3,4,5,6-tetrahydro-[1,1′-biphenyl]-2-yl)methyl)-3,8-diazabicyclo[3.2.1]octane-3-carbonyl)-1-oxoisoindolin-2-yl)piperidine-2,6-dione] here?
A: 1870 nM

Q: With `O=C1CCC(N2Cc3cc(CN4CC5CC4CN5C(=O)c4ccccc4-c4ccc(Cl)cc4)ccc3C2=O)C(=O)N1` (stereo not shown) [GT-05776, 3-(5-((5-(4′-chloro-[1,1′-biphenyl]-2-carbonyl)-2,5-diazabicyclo[2.2.1]heptan-2-yl)methyl)-1-oxoisoindolin-2-yl)piperidine-2,6-dione] as the compound, how does the IC50 read?
A: 420 nM

Q: How did the IC50 turn out when `O=C1CCC(N2Cc3c(CN4CCN(Cc5ccccc5-c5ccc(F)cc5)CC4)cccc3C2=O)C(=O)N1` (stereo not shown) [GT-05605, 3-(4-((4-((4′-fluoro-[1,1′-biphenyl]-2-yl)methyl)piperazin-1-yl)methyl)-1-oxoisoindolin-2-yl)piperidine-2,6-dione] was run?
A: 1050 nM

Q: Which IC50 does the source give for `O=C1CCC(N2Cc3ccc(CN4CCN(C(=O)C5=C(c6ccc(F)cc6)CCCC5)CC4)cc3C2=O)C(=O)N1` (stereo not shown) [GT-05470, 3-(6-((4-(4′-fluoro-3,4,5,6-tetrahydro-[1,1′-biphenyl]-2-carbonyl)piperazin-1-yl)methyl)-1-oxoisoindolin-2-yl)piperidine-2,6-dione] here?
A: 980 nM

Q: For `CC1(C)CCC(CN2CC3CCC(C2)N3C(=O)c2ccc3c(c2)CN(C2CCC(=O)NC2=O)C3=O)=C(c2ccc(Cl)cc2)C1` (stereo not shown) [GT-05458, 3-(5-(3-((4′-chloro-5,5-dimethyl-3,4,5,6-tetrahydro-[1,1′-biphenyl]-2-yl)methyl)-3,8-diazabicyclo[3.2.1]octane-8-carbonyl)-1-oxoisoindolin-2-yl)piperidine-2,6-dione], which IC50 is on record?
A: 1410 nM

Q: `CC1(C)CCC(CN2C3CC2CN(Cc2cc4c(cc2F)C(=O)N(C2CCC(=O)NC2=O)C4)C3)=C(c2ccc(Cl)cc2)C1` (stereo not shown) [GT-05530, 3-(5-((6-((4′-chloro-5,5-dimethyl-3,4,5,6-tetrahydro-[1,1′-biphenyl]-2-yl)methyl)-3,6-diazabicyclo[3.1.1]heptan-3-yl)methyl)-6-fluoro-1-oxoisoindolin-2-yl)piperidine-2,6-dione] was tested. Which IC50 did it give?
A: 1200 nM

Q: How did the IC50 turn out when `CC1(C)CCC(CN2CC(O)(C(O)c3ccc4c(c3)CN(C3CCC(=O)NC3=O)C4=O)C2)=C(c2ccc(Cl)cc2)C1` (stereo not shown) [GT-05427, 3-(5-((1-((4′-chloro-5,5-dimethyl-3,4,5,6-tetrahydro-[1,1′-biphenyl]-2-yl)methyl)-3-hydroxyazetidin-3-yl)(hydroxy)methyl)-1-oxoisoindolin-2-yl)piperidine-2,6-dione] was run?
A: 950 nM

Q: `CC1(C)CCC(CN2CCN(C(=O)c3ccc4c(c3)CN(C3CCC(=O)NC3=O)C4=O)CC2)=C(c2ccc(F)cc2)C1` (stereo not shown) [GT-05614, 3-(5-(4-((4′-fluoro-5,5-dimethyl-3,4,5,6-tetrahydro-[1,1′-biphenyl]-2-yl)methyl)piperazine-1-carbonyl)-1-oxoisoindolin-2-yl)piperidine-2,6-dione] was tested. Which IC50 did it give?
A: 1410 nM

Q: For `CC1(C)CCC(C(=O)N2CCN(Cc3ccc4c(c3F)CN(C3CCC(=O)NC3=O)C4=O)CC2)=C(c2ccc(Cl)cc2)C1` (stereo not shown) [GT-05525, 3-(5-((4-(4′-chloro-5,5-dimethyl-3,4,5,6-tetrahydro-[1,1′-biphenyl]-2-carbonyl)piperazin-1-yl)methyl)-4-fluoro-1-oxoisoindolin-2-yl)piperidine-2,6-dione], which IC50 is on record?
A: 710 nM

Q: With `CC1(C)CCC(CN2CC3CCC2CN3c2ccc3c(c2)C(=O)N(C2CCC(=O)NC2=O)C3=O)=C(c2ccc(F)cc2)C1` (stereo not shown) [GT-05388, 2-(2,6-dioxopiperidin-3-yl)-5-(5-((4′-fluoro-5,5-dimethyl-3,4,5,6-tetrahydro-[1,1′-biphenyl]-2-yl)methyl)-2,5-diazabicyclo[2.2.2]octan-2-yl)isoindoline-1,3-dione] as the compound, how does the IC50 read?
A: 410 nM

Q: `CC1(C)CCC(C(=O)N2CCN(Nc3ccc4c(c3)CN(C3CCC(=O)NC3=O)C4=O)CC2)=C(c2ccc(Cl)cc2)C1` (stereo not shown) [GT-05417, 3-(5-((4-(4′-chloro-5,5-dimethyl-3,4,5,6-tetrahydro-[1,1′-biphenyl]-2-carbonyl)piperazin-1-yl)amino)-1-oxoisoindolin-2-yl)piperidine-2,6-dione] was tested. Which IC50 did it give?
A: 1480 nM

Q: For `O=C1CCC(N2Cc3cc(CCCN4CCN(Cc5ccccc5-c5ccc(Cl)cc5)CC4)ccc3C2=O)C(=O)N1` (stereo not shown) [GT-05893, 3-(5-(3-(4-((4′-chloro-[1,1′-biphenyl]-2-yl)methyl)piperazin-1-yl)propyl)-1-oxoisoindolin-2-yl)piperidine-2,6-dione], which IC50 is on record?
A: 1150 nM

Q: With `O=C1CCC(N2Cc3cc(CN4CC5CCC(C4)N5Cc4ccccc4-c4ccc(Cl)cc4)ccc3C2=O)C(=O)N1` (stereo not shown) [GT-05618, 3-(5-((8-((4′-chloro-[1,1′-biphenyl]-2-yl)methyl)-3,8-diazabicyclo[3.2.1]octan-3-yl)methyl)-1-oxoisoindolin-2-yl)piperidine-2,6-dione] as the compound, how does the IC50 read?
A: 580 nM

Q: With `CC1(C)CCC(C(=O)N2CCN(Cc3ccc(-c4ccc5c(c4)CN(C4CCC(=O)NC4=O)C5=O)cc3)CC2)=C(c2ccc(Cl)cc2)C1` (stereo not shown) [GT-05359, 3-(5-(4-((4-(4′-chloro-5,5-dimethyl-3,4,5,6-tetrahydro-[1,1′-biphenyl]-2-carbonyl)piperazin-1-yl)methyl)phenyl)-1-oxoisoindolin-2-yl)piperidine-2,6-dione] as the compound, how does the IC50 read?
A: 970 nM

Q: For `CC1(C)CCC(CN2C3CCC2CN(Cc2ccc4c(c2)CN(C2CCC(=O)NC2=O)C4=O)C3)=C(c2ccc(Cl)cc2)C1` (stereo not shown) [GT-03996, 3-(5-((8-((4′-chloro-5,5-dimethyl-3,4,5,6-tetrahydro-[1,1′-biphenyl]-2-yl)methyl)-3,8-diazabicyclo[3.2.1]octan-3-yl)methyl)-1-oxoisoindolin-2-yl)piperidine-2,6-dione], which IC50 is on record?
A: 1440 nM

Q: With `CC1(C)CCC(CN2CC3CCC2CN3Cc2cccc3c2CN(C2CCC(=O)NC2=O)C3=O)=C(c2ccc(Cl)cc2)C1` (stereo not shown) [GT-05461, 3-(4-((5-((4′-chloro-5,5-dimethyl-3,4,5,6-tetrahydro-[1,1′-biphenyl]-2-yl)methyl)-2,5-diazabicyclo[2.2.2]octan-2-yl)methyl)-1-oxoisoindolin-2-yl)piperidine-2,6-dione] as the compound, how does the IC50 read?
A: 1580 nM

Q: How did the IC50 turn out when `CC1(C)CCC(CN2CC3CCC2CN3Cc2ccc3c(c2)C(=O)N(C2CCC(=O)NC2=O)C3)=C(c2ccc(Cl)cc2)C1` (stereo not shown) [GT-05485, 3-(6-((5-((4′-chloro-5,5-dimethyl-3,4,5,6-tetrahydro-[1,1′-biphenyl]-2-yl)methyl)-2,5-diazabicyclo[2.2.2]octan-2-yl)methyl)-1-oxoisoindolin-2-yl)piperidine-2,6-dione] was run?
A: 740 nM

Q: Which IC50 does the source give for `CC1(C)CCC(CN2CC3CC2CN3C(=O)c2ccc3c(c2)CN(C2CCC(=O)NC2=O)C3=O)=C(c2ccc(F)cc2)C1` (stereo not shown) [GT-05452, 3-(5-(5-((4′-fluoro-5,5-dimethyl-3,4,5,6-tetrahydro-[1,1′-biphenyl]-2-yl)methyl)-2,5-diazabicyclo[2.2.1]heptane-2-carbonyl)-1-oxoisoindolin-2-yl)piperidine-2,6-dione] here?
A: 440 nM

Q: For `CC1(C)CCC(CN2CCC(Nc3ccc4c(c3)CN(C3CCC(=O)NC3=O)C4=O)CC2)=C(c2ccc(F)cc2)C1` (stereo not shown) [GT-05785, 3-(5-((1-((4′-fluoro-5,5-dimethyl-3,4,5,6-tetrahydro-[1,1′-biphenyl]-2-yl)methyl)piperidin-4-yl)amino)-1-oxoisoindolin-2-yl)piperidine-2,6-dione], which IC50 is on record?
A: 1250 nM

Q: Which IC50 does the source give for `O=C1CCC(N2Cc3cc(CN4CCN(C(=O)c5ccncc5-c5ccc(Cl)cc5)CC4)ccc3C2=O)C(=O)N1` (stereo not shown) [GT-04222, 3-(5-((4-(3-(4-chlorophenyl)isonicotinoyl)piperazin-1-yl)methyl)-1-oxoisoindolin-2-yl)piperidine-2,6-dione] here?
A: 560 nM

Q: With `CC1(C)CCC(C(=O)N2C3CCC2CN(C(=O)c2ccc4c(c2)CN(C2CCC(=O)NC2=O)C4=O)C3)=C(c2ccc(Cl)cc2)C1` (stereo not shown) [GT-05540, 3-(5-(8-(4′-chloro-5,5-dimethyl-3,4,5,6-tetrahydro-[1,1′-biphenyl]-2-carbonyl)-3,8-diazabicyclo[3.2.1]octane-3-carbonyl)-1-oxoisoindolin-2-yl)piperidine-2,6-dione] as the compound, how does the IC50 read?
A: 960 nM

Q: For `CC1(C)CCC(CN2CC3CC(C2)N3c2ccc3c(c2)C(=O)N(C2CCC(=O)NC2=O)C3=O)=C(c2ccc(F)cc2)C1` (stereo not shown) [GT-05386, 2-(2,6-dioxopiperidin-3-yl)-5-(3-((4′-fluoro-5,5-dimethyl-3,4,5,6-tetrahydro-[1,1′-biphenyl]-2-yl)methyl)-3,6-diazabicyclo[3.1.1]heptan-6-yl)isoindoline-1,3-dione], which IC50 is on record?
A: 1460 nM

Q: For `CC1(C)CCC(C(=O)N2CCC(Cc3ccc4c(c3)CN(C3CCC(=O)NC3=O)C4=O)CC2)=C(c2ccc(F)cc2)C1` (stereo not shown) [GT-05487, 3-(5-((1-(4′-fluoro-5,5-dimethyl-3,4,5,6-tetrahydro-[1,1′-biphenyl]-2-carbonyl)piperidin-4-yl)methyl)-1-oxoisoindolin-2-yl)piperidine-2,6-dione], which IC50 is on record?
A: 650 nM
